Patent US9393316B2, “Cancer targeting peptides for enhancing anti-cancer drug delivery and therapeutic efficiencies” (priority 2014, dated 2016)

Columns and labels:
1112SK = assay: Cellular ELISA of phage clones; format: binding, human
Protocol: (§1) The selected phages were further identified by ELISA screening. 1×10^4 cells were seeded into each well of 96-well ELISA plates (Falcon, Calif., USA) overnight and were fixed with 2% paraformaldehyde or methanol/acetone (1:1) for 10 min at RT. The plates were washed twice with PBS and were blocked with 1% BSA in PBS (w/v) for 30 min at RT. Then individual phage clones were added and incubated for 1 hr at RT. Following washing three times with PBS, the plates were incubated with horseradish peroxidase (HRP)-conjugated mouse anti-M13 phage antibody (GE Healthcare) at 1:2000 dilution for 1 hr at RT. The plates were washed three times with PBS again, and were subsequently incubated with the peroxidase substrate o-phenylenediamine dihydrochloride (OPD; Sigma) plus H2O2. The reaction was terminated by 3 N HCl, and the absorbance was measured using microplate reader (Model 680, BioRad) at 490 nm. To evaluate the binding activities of the three selected phage clones to various human cancer cell lines, cellular ELISA was performed to detect sixteen types of human cancer cell lines, including A498, HTB-10, B16-F10, SKOV3, PC-3, U2OS, 1112SK, […], SAS, H460, MIA Paca-2, HCT116, HUVAC, CL1-5, Mahlavu, and MDA-MB-231.

SAS = assay: Cellular ELISA of phage clones; format: binding, human
Protocol: as §1

PC-3 = assay: Cellular ELISA of phage clones; format: binding, human
Protocol: as §1

A498 = assay: Cellular ELISA of phage clones; format: binding, human
Protocol: as §1

U2OS = assay: Cellular ELISA of phage clones; format: binding, human
Protocol: as §1

MIA Paca-2 = assay: Cellular ELISA of phage clones; format: binding, human
Protocol: as §1

Mahlavu = assay: Cellular ELISA of phage clones; format: binding, human
Protocol: as §1

CL1-5 = assay: Cellular ELISA of phage clones; format: binding, human
Protocol: as §1

MDA-MB-231 = assay: Cellular ELISA of phage clones; format: binding, human
Protocol: as §1

HUVAC = assay: Cellular ELISA of phage clones; format: binding, human
Protocol: as §1

H460 = assay: Cellular ELISA of phage clones; format: binding, human
Protocol: as §1

SKOV3 = assay: Cellular ELISA of phage clones; format: binding, human
Protocol: as §1

H184 = assay: Cellular ELISA of phage clones; format: binding, human
Protocol: as §1

HTB-10 = assay: Cellular ELISA of phage clones; format: binding, human
Protocol: as §1

LS174T = assay: Flow cytometry surface binding of phage clones; design: species or system human
Protocol: (§2) Cells were grown to 70-80% confluence and were harvested with 10 mM EDTA in PBS. Peripheral blood mononuclear cells were prepared by using Ficoll-Paque Plus density gradient separation. After washing and suspending the cells with FACS buffer (PBS containing 1% fetal bovine serum), the cells were incubated for 1 hr at 4° C. with 5×10^9, 1×10^9 cfu individual phage clones or control phage, respectively. After washing twice with FACS buffer, cells were incubated with mouse anti-M13 monoclonal antibody (GE Healthcare) at 1:2000 dilution for 1 hr followed by 30 min with phycoerythrin (PE)-conjugated goat anti-mouse secondary antibody (Jackson ImmunoResearch) at 1:250 dilution at 4° C. The emission fluorescence signals were measured using FACSCantoll (Becton Dickinson) and were analyzed by FlowJo software.

HT29 = assay: Flow cytometry surface binding of phage clones; design: species or system human
Protocol: as §2

HCT116 cells = assay: Flow cytometry surface binding of phage clones; design: species or system human
Protocol: as §2

COLO205 = assay: Flow cytometry surface binding of phage clones; design: species or system human
Protocol: as §2

SW620 = assay: Flow cytometry surface binding of phage clones; design: species or system human
Protocol: as §2

[1] = molecular target: recombinant α-enolase protein (Homo sapiens, UniProt P06733); assay: Direct ELISA of HCT74 phage on recombinant α-enolase protein; format: binding; details: plate coated with 2 ug/mL α-enolase
Protocol: (A) Schematic diagram of the experimental design. (B) The binding characteristics of biotinylated pHCT74 peptide to HCT116 cells were evaluated by flow cytometry. (C) Affinity cross-linking of biotinylated pHCT74 peptide to the surface proteins of HCT116 cells, cross-linked proteins were cleaved from streptavidin dynabeads using 2-mercaptoethanol. […] (D) The peptide sequence (SEQ ID NO: 22) of target bands were deduced by tandem mass spectrometry. (E) Stable knockdown of ENO1 gene by introducing specific shRNA (ENO1-A, B, C and D shRNA) into HCT116 cells through infection with viral vectors. (F) The binding activity of HCT74 phage was reduced after α-enolase gene knockdown (G) The binding activity of HCT74 phage was enhanced when α-enolase was overexpressed. (H) Binding affinity of the HCT74 phage to recombinant α-enolase protein. The 96-well plate was pre-coated with 2 ug/mL α-enolase protein and incubated with increasing concentrations of HCT74 phage and then with HRP conjugated anti-M13 antibody. Data are presented as mean±standard deviation.
To further confirm alpha-enolase was the target proteins of the pHCT74 peptide, correlation between the binding activity of HCT74 phage and ENO1 expression was examined. We established stable cell lines expressing shRNAs targeting ENO1 gene (FIG. 4E) and tested the binding activity of HCT74 phage by flow cytometry. […]

alpha-enolase (ENO1) = molecular target: T1, alpha-enolase (ENO1) (Homo sapiens, UniProt P06733); assay: Flow cytometry binding of HCT74 phage after ENO1 knockdown or overexpression
T1 construct: endogenous in cells; host or cells: HCT116
Excerpt: To further confirm alpha-enolase was the target proteins of the pHCT74 peptide, correlation between the binding activity of HCT74 phage and ENO1 expression was examined. We established stable cell lines expressing shRNAs targeting ENO1 gene (FIG. 4E) and tested the binding activity of HCT74 phage by flow cytometry. The binding activity of HCT74 phage was reduced after ENO1 gene knockdown (FIG. 4F). Instead, after transient overexpression of ENO1 gene, the binding activity of HCT74 phage was increased (FIG. 4G). […] In addition, HCT74 phage specific binding to the alpha enolase protein was also confirmed by direct ELISA assay (FIG. 4H).

T1 sequence (P06733 whole entry): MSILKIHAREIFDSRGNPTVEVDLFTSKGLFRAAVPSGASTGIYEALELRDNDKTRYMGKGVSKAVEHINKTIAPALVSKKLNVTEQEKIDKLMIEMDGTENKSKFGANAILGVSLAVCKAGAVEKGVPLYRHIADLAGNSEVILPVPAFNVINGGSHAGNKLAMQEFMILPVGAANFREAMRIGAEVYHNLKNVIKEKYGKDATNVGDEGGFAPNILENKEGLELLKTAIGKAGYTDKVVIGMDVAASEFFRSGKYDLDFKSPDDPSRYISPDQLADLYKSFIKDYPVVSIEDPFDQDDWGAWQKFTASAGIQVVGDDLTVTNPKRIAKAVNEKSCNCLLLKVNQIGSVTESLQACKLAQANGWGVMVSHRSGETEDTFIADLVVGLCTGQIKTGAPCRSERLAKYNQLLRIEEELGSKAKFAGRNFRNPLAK
Chain of recombinant α-enolase protein (P06733 whole entry): as above

SSMDIVLRAPLM [HCT74]
binding by cellular ELISA (1112SK): highly specific binding | binding by cellular ELISA (SAS): highly specific binding | binding by cellular ELISA (PC-3): highly specific binding | binding by cellular ELISA (A498): highly specific binding | binding by cellular ELISA (U2OS): highly specific binding | binding by cellular ELISA (MIA Paca-2): highly specific binding | binding by cellular ELISA (Mahlavu): highly specific binding | binding by cellular ELISA (CL1-5): moderate binding | binding by cellular ELISA (MDA-MB-231): highly specific binding | binding by cellular ELISA (HUVAC): highly specific binding | binding by cellular ELISA (H460): highly specific binding | binding by cellular ELISA (SKOV3): highly specific binding | binding by cellular ELISA (H184): highly specific binding | binding by cellular ELISA (HTB-10): moderate binding | binding activity by FACS (LS174T): moderate affinity | binding activity by FACS (HT29): high binding affinity | cell surface-binding activity by flow cytometry (HCT116 cells): high binding affinity | binding activity by FACS (COLO205): weak affinity | binding activity by FACS (SW620): high binding affinity | specific binding to alpha enolase protein [1]: confirmed | binding activity after ENO1 gene knockdown (alpha-enolase (ENO1); HCT116 cells with shRNAs targeting ENO1): reduced | binding activity after transient overexpression of ENO1 gene (alpha-enolase (ENO1); flow cytometry): increased
